What was measured:
UACC-62 = experiment: cells; type: functional, cell-based, Homo sapiens; conditions: Homo sapiens, UACC-62;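 note: growth inhibition of human UACC-62 cells, read out by a cell viability assay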
Description: SANGER: Inhibition of human UACC-62 cell growth in a cell viability assay.

KG-1 = experiment: cells; type: functional, cell-based, Homo sapiens; conditions: Homo sapiens, KG-1;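 note: growth inhibition of KG-1 cells, read out by a cell viability assay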
Description: SANGER: Inhibition of human KG-1 cell growth in a cell viability assay.

MC116 = experiment: cells; type: functional, cell-based, Homo sapiens; conditions: Homo sapiens, MC116;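 note: growth inhibition of MC116 cells, read out with a cell viability assay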
Description: SANGER: Inhibition of human MC116 cell growth in a cell viability assay.

HuP-T4 = experiment: cells; type: functional, cell-based, Homo sapiens; conditions: Homo sapiens, HuP-T4;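 note: cell viability assay measuring how much HuP-T4 cell growth is inhibited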
Description: SANGER: Inhibition of human HuP-T4 cell growth in a cell viability assay.

LB1047-RCC = experiment: cells; type: functional, cell-based, Homo sapiens; conditions: Homo sapiens, LB1047-RCC
Description: SANGER: Inhibition of human LB1047-RCC cell growth in a cell viability assay.

EW-13 = experiment: cells; type: functional, cell-based, Homo sapiens; conditions: Homo sapiens, EW-13;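 note: growth inhibition of EW-13 cells, read out with a cell viability assay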
Description: SANGER: Inhibition of human EW-13 cell growth in a cell viability assay.

SNB-75 = experiment: cells; type: functional, cell-based, Homo sapiens; conditions: Homo sapiens, SNB-75;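 note: cell viability assay measuring growth inhibition of human SNB-75 cells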
Description: SANGER: Inhibition of human SNB75 cell growth in a cell viability assay.

NCI-H358 = experiment: cells; type: functional, cell-based, Homo sapiens; conditions: Homo sapiens, NCI-H358;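 note: growth inhibition of NCI-H358 human cells, read out with a cell viability assay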
Description: SANGER: Inhibition of human NCI-H358 cell growth in a cell viability assay.

LOUCY = experiment: cells; type: functional, cell-based, Homo sapiens; conditions: Homo sapiens, LOUCY;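 note: growth inhibition of human LOUCY cells, read out with a cell viability assay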
Description: SANGER: Inhibition of human LOUCY cell growth in a cell viability assay.

CP50-MEL-B = experiment: cells; type: functional, cell-based, Homo sapiens; conditions: Homo sapiens, CP50-MEL-B;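 note: growth inhibition of the human cell line, measured with a cell viability read-out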
Description: SANGER: Inhibition of human CP50-MEL-B cell growth in a cell viability assay.

P12-Ichikawa = experiment: cells; type: functional, cell-based, Homo sapiens; conditions: Homo sapiens, P12-Ichikawa
SK-PN-DW = experiment: cells; type: functional, cell-based, Homo sapiens; conditions: Homo sapiens, SK-PN-DW;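 note: growth inhibition measured with a viability assay on these cells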
Description: SANGER: Inhibition of human SK-PN-DW cell growth in a cell viability assay.

KYSE-270 = experiment: cells; type: functional, cell-based, Homo sapiens; conditions: Homo sapiens, KYSE-270;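 note: cell growth inhibition measured with a viability assay in the human KYSE-270 line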
Description: SANGER: Inhibition of human KYSE-270 cell growth in a cell viability assay.

KALS-1 = experiment: cells; type: functional, cell-based, Homo sapiens; conditions: Homo sapiens, KALS-1;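 note: growth inhibition of KALS-1 cells, determined with a cell viability assay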
Description: SANGER: Inhibition of human KALS-1 cell growth in a cell viability assay.

M14 = experiment: cells; type: functional, cell-based, Homo sapiens; conditions: Homo sapiens, M14;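 note: growth inhibition of M14 cells, read out with a cell viability assay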
Description: SANGER: Inhibition of human M14 cell growth in a cell viability assay.

BFTC-909 = experiment: cells; type: functional, cell-based, Homo sapiens; conditions: Homo sapiens, BFTC-909
Description: SANGER: Inhibition of human BFTC-909 cell growth in a cell viability assay.

NCI-H2170 = experiment: cells; type: functional, cell-based, Homo sapiens; conditions: Homo sapiens, NCI-H2170;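 note: cell viability assay measuring growth inhibition of human NCI-H2170 cancer cells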
Description: SANGER: Inhibition of human NCI-H2170 cell growth in a cell viability assay.

BL-41 = experiment: cells; type: functional, cell-based, Homo sapiens; conditions: Homo sapiens, BL-41;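 note: growth inhibition of human BL-41 cells, read out with a cell viability assay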
Description: SANGER: Inhibition of human BL-41 cell growth in a cell viability assay.

A204 = experiment: cells; type: functional, cell-based, Homo sapiens; conditions: Homo sapiens, A204;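 note: growth inhibition of human A204 cells, read out with a cell viability assay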
Description: SANGER: Inhibition of human A204 cell growth in a cell viability assay.

NCI-H441 = experiment: cells; type: functional, cell-based, Homo sapiens; conditions: Homo sapiens, NCI-H441;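 note: growth inhibition of NCI-H441 cells, read out with a cell viability assay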
Description: SANGER: Inhibition of human NCI-H441 cell growth in a cell viability assay.

C8166 = experiment: cells; type: functional, cell-based, Homo sapiens; conditions: Homo sapiens, C8166;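 note: growth inhibition of human C8166 cells measured by a cell viability assay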
Description: SANGER: Inhibition of human C8166 cell growth in a cell viability assay.

HCE-4 = experiment: cells; type: functional, cell-based, Homo sapiens; conditions: Homo sapiens, HCE-4;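 note: cell viability assay measuring inhibition of growth in the human HCE-4 cell line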
Description: SANGER: Inhibition of human HCE-4 cell growth in a cell viability assay.

COR-L279 = experiment: SANGER: Inhibition of human COR-L279 cell growth in a cell viability assay.; type: functional, cell-based; conditions: Homo sapiens, COR-L279
CAL-33 = experiment: cells; type: functional, cell-based, Homo sapiens; conditions: Homo sapiens, CAL-33;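 note: growth inhibition of CAL-33 cells, read out with a cell viability assay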
Description: SANGER: Inhibition of human CAL-33 cell growth in a cell viability assay.

NCI-H2122 = experiment: cells; type: functional, cell-based, Homo sapiens; conditions: Homo sapiens, NCI-H2122;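 note: growth inhibition of the cells, read out with a cell viability assay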
Description: SANGER: Inhibition of human NCI-H2122 cell growth in a cell viability assay.

SCC-3 = experiment: cells; type: functional, cell-based, Homo sapiens; conditions: Homo sapiens, SCC-3;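 note: cell viability assay measuring inhibition of SCC-3 cell growth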
Description: SANGER: Inhibition of human SCC-3 cell growth in a cell viability assay.

L-363 = experiment: cells; type: functional, cell-based, Homo sapiens; conditions: Homo sapiens, L-363
Description: SANGER: Inhibition of human L-363 cell growth in a cell viability assay.

SK-MEL-30 = experiment: cells; type: functional, cell-based, Homo sapiens; conditions: Homo sapiens, SK-MEL-30;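 note: growth inhibition of SK-MEL-30 cells, determined with a cell viability assay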
Description: SANGER: Inhibition of human SK-MEL-30 cell growth in a cell viability assay.

CESS = experiment: SANGER: Inhibition of human CESS cell growth in a cell viability assay.; type: functional, cell-based; conditions: Homo sapiens, CESS
SK-N-DZ = experiment: cells; type: functional, cell-based, Homo sapiens; conditions: Homo sapiens, SK-N-DZ;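 note: growth inhibition of the cancer cell line, read out through a viability assay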
Description: SANGER: Inhibition of human SK-N-DZ cell growth in a cell viability assay.

SW1463 = experiment: cells; type: functional, cell-based, Homo sapiens; conditions: Homo sapiens, SW1463;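 note: growth inhibition of SW1463 cells, determined with a cell viability assay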
Description: SANGER: Inhibition of human SW1463 cell growth in a cell viability assay.

SNU-5 = experiment: cells; type: functional, cell-based, Homo sapiens; conditions: Homo sapiens, SNU-5;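 note: cell viability readout used to measure growth inhibition in human NCI-SNU-5 cells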
Description: SANGER: Inhibition of human NCI-SNU-5 cell growth in a cell viability assay.

MG-63 = experiment: cells; type: functional, cell-based, Homo sapiens; conditions: Homo sapiens, MG-63;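 note: growth inhibition of human MG-63 cells, read out with a cell viability assay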
Description: SANGER: Inhibition of human MG-63 cell growth in a cell viability assay.

SNU-423 = experiment: cells; type: functional, cell-based, Homo sapiens; conditions: Homo sapiens, SNU-423
Description: SANGER: Inhibition of human SNU-423 cell growth in a cell viability assay.

RVH-421 = experiment: cells; type: functional, cell-based, Homo sapiens; conditions: Homo sapiens, RVH-421
Description: SANGER: Inhibition of human RVH-421 cell growth in a cell viability assay.

D-392MG = experiment: cells; type: functional, cell-based, Homo sapiens; conditions: Homo sapiens, D-392MG
NCCIT = experiment: SANGER: Inhibition of human NCCIT cell growth in a cell viability assay.; type: functional, cell-based; conditions: Homo sapiens, NCCIT
ACHN = experiment: cells; type: functional, cell-based, Homo sapiens; conditions: Homo sapiens, ACHN;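 note: cell viability read-out used to gauge how strongly growth of human ACHN cells is suppressed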
Description: SANGER: Inhibition of human ACHN cell growth in a cell viability assay.

ES7 = experiment: cells; type: functional, cell-based, Homo sapiens; conditions: Homo sapiens, ES7;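 note: growth inhibition of cultured human ES7 cells, read out as cell viability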
Description: SANGER: Inhibition of human ES7 cell growth in a cell viability assay.

LB771-HNC = experiment: cells; type: functional, cell-based, Homo sapiens; conditions: Homo sapiens, LB771-HNC;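 note: growth inhibition of LB771-HNC human cells, read out with a cell viability assay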
Description: SANGER: Inhibition of human LB771-HNC cell growth in a cell viability assay.

COLO-678 = experiment: cells; type: functional, cell-based, Homo sapiens; conditions: Homo sapiens, COLO-678
Description: SANGER: Inhibition of human COLO-678 cell growth in a cell viability assay.

SK-HEP1 = experiment: cells; type: functional, cell-based, Homo sapiens, SK-HEP-1; conditions: Homo sapiens, SK-HEP1;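 note: cell viability readout used to quantify reduction in proliferation of human SK-HEP-1 cells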
Description: SANGER: Inhibition of human SK-HEP-1 cell growth in a cell viability assay.

NCI-H1623 = experiment: cells; type: functional, cell-based, Homo sapiens; conditions: Homo sapiens, NCI-H1623;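 note: cell viability assay used as the read-out for growth inhibition of NCI-H1623 cells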
Description: SANGER: Inhibition of human NCI-H1623 cell growth in a cell viability assay.

KINGS-1 = experiment: cells; type: functional, cell-based, Homo sapiens; conditions: Homo sapiens, KINGS-1;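 note: cell viability assay measuring suppression of KINGS-1 cell growth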
Description: SANGER: Inhibition of human KINGS-1 cell growth in a cell viability assay.

BCPAP = experiment: cells; type: functional, cell-based, Homo sapiens; conditions: Homo sapiens, BCPAP;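 note: growth inhibition of BCPAP cells, read out in a cell viability assay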
Description: SANGER: Inhibition of human BCPAP cell growth in a cell viability assay.

NCI-H719 = experiment: cells; type: functional, cell-based, Homo sapiens; conditions: Homo sapiens, NCI-H719;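 note: growth inhibition of the cultured cell line, read out with a viability assay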
Description: SANGER: Inhibition of human NCI-H719 cell growth in a cell viability assay.

`COc1cccc2c1C(=O)c1c(O)c3c(c(O)c1C2=O)C[C@@](O)(C(=O)CO)C[C@@H]3O[C@H]1C[C@H](N)[C@H](O)[C@H](C)O1` [DOXORUBICIN] was tested, and the IC50 (UACC-62) was > 1020 nM, the IC50 (KG-1) was 362 nM and the IC50 (MC116) was 391 nM. The IC50 (HuP-T4) was 52.2 nM, the IC50 (LB1047-RCC) was 36 nM and the IC50 (EW-13) was 9.63 nM. It also gave an IC50 (SNB-75) of 149 nM, an IC50 (NCI-H358) of 41.1 nM and an IC50 (LOUCY) of 21.3 nM. For the same compound, the IC50 (CP50-MEL-B) was > 1020 nM, the IC50 (P12-Ichikawa) was 49.3 nM and the IC50 (SK-PN-DW) was 25.7 nM. For the same compound, the IC50 (KYSE-270) was 7.21 nM, the IC50 (KALS-1) was 29.3 nM and the IC50 (M14) was 905 nM. The IC50 (BFTC-909) was 118 nM, the IC50 (NCI-H2170) was 110 nM and the IC50 (BL-41) was 122 nM. It also gave an IC50 (A204) of 12.9 nM, an IC50 (NCI-H441) of 28.4 nM and an IC50 (C8166) of 33.3 nM. It also gave an IC50 (HCE-4) of 18.1 nM, an IC50 (COR-L279) of 56.9 nM and an IC50 (CAL-33) of 67.9 nM. The IC50 (NCI-H2122) was 37.9 nM, the IC50 (SCC-3) was 67.3 nM and the IC50 (L-363) was 324 nM. For the same compound, the IC50 (SK-MEL-30) was 35.6 nM, the IC50 (CESS) was 39.4 nM and the IC50 (SK-N-DZ) was > 1020 nM. The IC50 (SW1463) was > 1020 nM, the IC50 (SNU-5) was 570 nM and the IC50 (MG-63) was 22.1 nM. For the same compound, the IC50 (SNU-423) was 155 nM, the IC50 (RVH-421) was 169 nM and the IC50 (D-392MG) was 249 nM. For the same compound, the IC50 (NCCIT) was 20.1 nM, the IC50 (ACHN) was 49.3 nM and the IC50 (ES7) was 51.4 nM. For the same compound, the IC50 (LB771-HNC) was > 1020 nM, the IC50 (COLO-678) was 427 nM and the IC50 (SK-HEP1) was 25.9 nM. It also gave an IC50 (NCI-H1623) of 605 nM, an IC50 (KINGS-1) of 1020 nM and an IC50 (BCPAP) of 52.5 nM. For the same compound, the IC50 (NCI-H719) was 39.7 nM.

For `Nc1ccn([C@@H]2O[C@H](CO)[C@@H](O)C2(F)F)c(=O)n1` [GEMCITABINE], the IC50 (UACC-62) was 813 nM, the IC50 (KG-1) was 62.2 nM and the IC50 (MC116) was 482 nM. For the same compound, the IC50 (HuP-T4) was 27.3 nM, the IC50 (LB1047-RCC) was < 4 nM and the IC50 (EW-13) was < 4 nM. For the same compound, the IC50 (SNB-75) was 37.2 nM, the IC50 (NCI-H358) was 7.16 nM and the IC50 (LOUCY) was 20.7 nM. For the same compound, the IC50 (CP50-MEL-B) was > 1020 nM, the IC50 (P12-Ichikawa) was 84.7 nM and the IC50 (SK-PN-DW) was < 4 nM. The IC50 (KYSE-270) was < 4 nM, the IC50 (KALS-1) was 21.4 nM and the IC50 (M14) was 515 nM. It also gave an IC50 (BFTC-909) of 146 nM, an IC50 (NCI-H2170) of 12 nM and an IC50 (BL-41) of 14.4 nM. The IC50 (A204) was 11.2 nM, the IC50 (NCI-H441) was 5.6 nM and the IC50 (C8166) was 13.1 nM. For the same compound, the IC50 (HCE-4) was < 4 nM, the IC50 (COR-L279) was 53.9 nM and the IC50 (CAL-33) was 1.89 nM. The IC50 (NCI-H2122) was < 4 nM, the IC50 (SCC-3) was 89.6 nM and the IC50 (L-363) was 95.5 nM. The IC50 (SK-MEL-30) was < 4 nM, the IC50 (CESS) was 23.2 nM and the IC50 (SK-N-DZ) was 86.6 nM. For the same compound, the IC50 (SW1463) was 510 nM, the IC50 (SNU-5) was 12.1 nM and the IC50 (MG-63) was 1.33 nM. For the same compound, the IC50 (SNU-423) was 62.5 nM, the IC50 (RVH-421) was > 1020 nM and the IC50 (D-392MG) was 1020 nM. For the same compound, the IC50 (NCCIT) was 176 nM, the IC50 (ACHN) was < 4 nM and the IC50 (ES7) was 19.8 nM. The IC50 (LB771-HNC) was > 1020 nM, the IC50 (COLO-678) was > 1020 nM and the IC50 (SK-HEP1) was 6.14 nM. The IC50 (NCI-H1623) was 187 nM, the IC50 (KINGS-1) was > 1020 nM and the IC50 (BCPAP) was 1.45 nM. For the same compound, the IC50 (NCI-H719) was 892 nM.

`O=C(O)c1ccc(-c2c[nH]c3ncc(-c4ccccc4)cc23)cc1C1CCCC1` [GSK-650394] was tested, and the IC50 (UACC-62) was > 16000 nM, the IC50 (KG-1) was > 16000 nM and the IC50 (MC116) was > 16000 nM. It also gave an IC50 (HuP-T4) of 8500 nM, an IC50 (LB1047-RCC) of 6200 nM and an IC50 (EW-13) of 3020 nM. The IC50 (SNB-75) was > 16000 nM, the IC50 (NCI-H358) was 6250 nM and the IC50 (LOUCY) was > 16000 nM. For the same compound, the IC50 (CP50-MEL-B) was > 16000 nM, the IC50 (P12-Ichikawa) was > 16000 nM and the IC50 (SK-PN-DW) was 14200 nM. The IC50 (KYSE-270) was 2410 nM, the IC50 (KALS-1) was > 16000 nM and the IC50 (M14) was > 16000 nM. The IC50 (BFTC-909) was 14600 nM, the IC50 (NCI-H2170) was > 16000 nM and the IC50 (BL-41) was > 16000 nM. For the same compound, the IC50 (A204) was > 16000 nM, the IC50 (NCI-H441) was > 16000 nM and the IC50 (C8166) was > 16000 nM. The IC50 (HCE-4) was 7590 nM, the IC50 (COR-L279) was > 16000 nM and the IC50 (CAL-33) was 9960 nM. The IC50 (NCI-H2122) was 3330 nM, the IC50 (SCC-3) was > 16000 nM and the IC50 (L-363) was > 16000 nM. For the same compound, the IC50 (SK-MEL-30) was 7970 nM, the IC50 (CESS) was > 16000 nM and the IC50 (SK-N-DZ) was > 16000 nM. The IC50 (SW1463) was > 16000 nM, the IC50 (SNU-5) was > 16000 nM and the IC50 (MG-63) was > 16000 nM. For the same compound, the IC50 (SNU-423) was > 16000 nM, the IC50 (RVH-421) was > 16000 nM and the IC50 (D-392MG) was > 16000 nM. For the same compound, the IC50 (NCCIT) was > 16000 nM, the IC50 (ACHN) was 10800 nM and the IC50 (ES7) was > 16000 nM. For the same compound, the IC50 (LB771-HNC) was > 16000 nM, the IC50 (COLO-678) was > 16000 nM and the IC50 (SK-HEP1) was 6340 nM. For the same compound, the IC50 (NCI-H1623) was > 16000 nM, the IC50 (KINGS-1) was > 16000 nM and the IC50 (BCPAP) was 13000 nM. The IC50 (NCI-H719) was > 16000 nM.

From ChEMBL document CHEMBL1201861, “Genomics of Drug Sensitity in Cancer screening data, Wellcome Trust Sanger Institute”
